Assay [1] can be described thus: Induction of apoptosis in human CL1-5 cells assessed as early apoptotic cells at 100 nM incubated for 24 hrs by AnnexinV/FITC and propidium iodide staining based flow cytometry analysis (reference value: 2.65%). The class given is functional. (A flow cytometer gives signals particle by particle.)
A short description of assay [2]: Induction of apoptosis in human CL1-5 cells assessed as necrotic cells at 100 nM incubated for 24 hrs by AnnexinV/FITC and propidium iodide staining based flow cytometry analysis (reference value: 0.285%). In kind it is functional.
Assay [3] is described as follows: Induction of apoptosis in human CL1-5 cells assessed as viable cells at 100 nM incubated for 24 hrs by AnnexinV/FITC and propidium iodide staining based flow cytometry analysis (reference value: 94.8 %). The settings on record: read-out: Activity. In kind it is functional.
Assay [4] is described as follows: Induction of autophagy in human CL1-5 cells assessed as fold increase in Beclin 1 expression level at 100 nM incubated for 24 hrs by Western blot analysis relative to control. The class given is functional. A general note: A western blot detects proteins with antibodies after separation by electrophoresis.
Assay [5] in a line: Induction of autophagy in human CL1-5 cells assessed as fold increase in Atg7 expression level at 100 nM incubated for 24 hrs by Western blot analysis relative to control. The class given is functional.
Assay [6] can be described thus: Induction of autophagy in human CL1-5 cells assessed as fold increase in Atg5 expression level at 100 nM incubated for 24 hrs by Western blot analysis relative to control. In kind it is functional.
Assay [7] can be described thus: Induction of autophagy in human CL1-5 cells assessed as fold increase in mTOR expression level at 100 nM incubated for 24 hrs by Western blot analysis relative to control. In kind it is functional.
A short description of assay [8]: Induction of autophagy in human CL1-5 cells assessed as fold change in LC3-I expression level at 100 nM incubated for 24 hrs by Western blot analysis relative to control. In kind it is functional.
Assay [9] can be described thus: Induction of autophagy in human CL1-5 cells assessed as fold increase in LC3-II expression level at 100 nM incubated for 24 hrs by Western blot analysis relative to control. In kind it is functional.
The nature of assay [10]: Induction of autophagy in human CL1-5 cells assessed as fold decrease in phosphorylated mTOR expression level at 100 nM incubated for 24 hrs by Western blot analysis relative to control. In kind it is functional.
A short description of assay [11]: Induction of autophagy in human CL1-5 cells assessed as proportion of cells with degradative autophagic compartment at 100 nM incubated for 24 hrs by acridine orange staining based flow cytometry analysis (reference value: 0.34%). In kind it is functional.
The subject of assay [12] is CL1-5. In words: Induction of autophagy in human CL1-5 cells assessed as LC3-GFP punta formation at 100 nM incubated for 24 hrs by confocal microscopic analysis. In kind it is functional, cell-based.
Assay [13] can be described thus: Induction of cell cycle arrest in human CL1-5 cells assessed as subG1 phase at 100 nM incubated for 24 hrs by propidium iodide staining based flow cytometry analysis (reference value: 2.28%). In kind it is functional.
Assay [14] is described as follows: Induction of cell cycle arrest in human CL1-5 cells assessed as G0/G1 phase at 100 nM incubated for 24 hrs by propidium iodide staining based flow cytometry analysis (reference value: 62.2%). In kind it is functional.
Assay [15] in a line: Induction of cell cycle arrest in human CL1-5 cells assessed as S phase at 100 nM incubated for 24 hrs by propidium iodide staining based flow cytometry analysis (reference value: 16.85%). In kind it is functional.
The nature of assay [16]: Induction of cell cycle arrest in human CL1-5 cells assessed as G2/M phase at 100 nM incubated for 24 hrs by propidium iodide staining based flow cytometry analysis (reference value: 18.04%). In kind it is functional.
Assay [17] can be described thus: Induction of apoptosis in human CL1-5 cells assessed as late apoptotic cells at 100 nM incubated for 24 hrs by AnnexinV/FITC and propidium iodide staining based flow cytometry analysis (reference value: 2.30%). In kind it is functional.
Assay [18] is described as follows: Induction of autophagy in human CL1-5 cells assessed as fold change in p62 expression level at 100 nM incubated for 24 hrs in presence of early-stage autophagy inhibitor, 3-MA by Western blot analysis relative to control. In kind it is functional.
The nature of assay [19]: Induction of autophagy in human CL1-5 cells assessed as fold decrease in p62 expression level at 100 nM incubated for 24 hrs by Western blot analysis relative to control. The class given is functional.
The nature of assay [20]: Cytotoxicity against human CL1-5 cells assessed as reduction in cell viability incubated for 24 hrs by MTT assay. The class given is functional, cell-based. The settings on record: CL1-5, 24 h. For orientation: Tetrazolium assays rely on reduction of a dye to a coloured formazan, in cell work by metabolically active cells.
The nature of assay [21]: Induction of autophagy in human CL1-5 cells assessed as fold decrease in p62 expression level at 50 nM incubated for 24 hrs by Western blot analysis relative to control. In kind it is functional.
Assay [22] in a line: Induction of autophagy in human CL1-5 cells assessed as fold increase in Atg7 expression level at 50 nM incubated for 24 hrs by Western blot analysis relative to control. The class given is functional.
Assay [23] is described as follows: Induction of autophagy in human CL1-5 cells assessed as fold increase in Atg5 expression level at 50 nM incubated for 24 hrs by Western blot analysis relative to control. The class given is functional.
A short description of assay [24]: Induction of autophagy in human CL1-5 cells assessed as fold increase in LC3-II expression level at 50 nM incubated for 24 hrs by Western blot analysis relative to control. The class given is functional.
Assay [25] is described as follows: Induction of autophagy in human CL1-5 cells assessed as fold increase in Beclin 1 expression level at 50 nM incubated for 24 hrs by Western blot analysis relative to control. The class given is functional.
The nature of assay [26]: Induction of autophagy in human CL1-5 cells assessed as fold increase in mTOR expression level at 50 nM incubated for 24 hrs by Western blot analysis relative to control. The class given is functional.
Assay [27] is described as follows: Induction of autophagy in human CL1-5 cells assessed as fold change in LC3-I expression level at 50 nM incubated for 24 hrs by Western blot analysis relative to control. In kind it is functional.
The nature of assay [28]: Induction of autophagy in human CL1-5 cells assessed as fold decrease in phosphorylated mTOR expression level at 50 nM incubated for 24 hrs by Western blot analysis relative to control. The class given is functional.
Assay [29] has as its system CL1-5. In words: Induction of autophagy in human CL1-5 cells assessed as LC3-GFP punta formation at 50 nM incubated for 24 hrs by confocal microscopic analysis. In kind it is functional, cell-based.

Several values for one entry are separate records, joined by “and”; a condition that tells them apart may be missing. Equal values may be shown once. Activity calls are given as the source filed them. The calls are words filed in the database; no cut-off is given here.

Regarding `CC(=O)O[C@H]1C(=O)[C@@]2(C)[C@H]([C@H](OC(=O)c3ccccc3)[C@]3(O)C[C@H](OC(=O)[C@H](O)[C@@H](NC(=O)c4ccccc4)c4ccccc4)C(C)=C1C3(C)C)[C@]1(OC(C)=O)CO[C@@H]1C[C@@H]2O` [PACLITAXEL], the Activity came to 18.6% in assay [1] and 2.31% in assay [2]. In assay [3], the viability at 0.1 µM turned out to be 72%.
One may read the IC50 as the concentration that gives 50% inhibition. Take `C[C@H]1C[C@H](O)[C@H](O)[C@H](O[C@H]2CC[C@]3(C=O)[C@H]4[C@H](O)C(=O)[C@]5(C)[C@@H](c6ccc(=O)oc6)CC[C@]5(O)[C@@H]4CC[C@]3(O)C2)O1`: the Activity in assay [1] is recorded as 4.72%; in assay [11], 14.45%; in [2] it was 0.91%; in [13], 2.14%; in [14], 43.83%; in assay [15], 24.94%. For the same compound, the Activity is listed as 28.04% in assay [16] and 5.52% in assay [17]. Moreover, the “fold change (FC)” value in assay [4] stood at 12.86; in assay [5] it was 1.76; in assay [6], 2.77; in [7], 1.1; in assay [8], 0.93; in [9], 2.55. For the same compound, the “fold change (FC)” value in assay [10] worked out at 0.08; in assay [18], 0.56; in assay [19] it was 0.4. In the assay with CL1-5 [12], the outcome was Active. In addition, the viability at 0.1 µM in [3] was found to be 88.8%. Besides, the IC50 in assay [20] is 0.0523 µg/mL and 90.8 nM.
For `C[C@@]12O[C@H]3C[C@@H](O1)[C@]1(C=O)[C@H]4[C@H](O)C(=O)[C@]5(C)[C@@H](c6ccc(=O)oc6)CC[C@]5(O)[C@@H]4CC[C@@]1(C3)O2`, the Activity in assay [1] is listed as 4.19%; in assay [11], 11.35%; in [2], 1.3%; in assay [13], 2.25%; in assay [14] it was 60.71%; in assay [15], 13.2%. Moreover, the Activity is recorded as 23.26% in assay [16] and 5.88% in assay [17]. For the same compound, the “fold change (FC)” value in [4] amounted to 3.2; in [5], 1.18; in assay [6], 2.01; in [7] it was 1.23; in assay [8], 1.03; in [9] it was 2.36. The figures for the “fold change (FC)” value in assay [10], in assay [18] and in [19] were 0.58, 1.02 and 0.59, respectively. Also, the outcome in the assay with CL1-5 [12] was inactive. In addition, the viability at 0.1 µM in [3] worked out at 88.6%. The IC50 in assay [20] is 0.0767 µg/mL and 162 nM.
Turning to `CO[C@H]1C[C@@H]2CC[C@@H](C)[C@@](O)(O2)C(=O)C(=O)N2CCCC[C@H]2C(=O)O[C@H]([C@H](C)C[C@@H]2CC[C@@H](O)[C@H](OC)C2)CC(=O)[C@H](C)/C=C(\C)[C@@H](O)[C@@H](OC)C(=O)[C@H](C)C[C@H](C)/C=C/C=C/C=C/1C` [SIROLIMUS], the “fold change (FC)” value was found to be 0.79 in [21]; 1.26 in assay [22]; 2.17 in [23]; 1.3 in assay [24]; 16.57 in assay [25]; 1.14 in assay [26]. Besides, the “fold change (FC)” value in assay [27] came to 1.69; in [28] it was 0.26. Moreover, the result in the assay with CL1-5 [29] was Active.
In the case of `CC(=O)O[C@H]1C[C@H](C)O[C@@H](O[C@H]2CC[C@]3(C=O)[C@H]4[C@H](O)C(=O)[C@]5(C)[C@@H](c6ccc(=O)oc6)CC[C@]5(O)[C@@H]4CC[C@]3(O)C2)[C@H]1O`, the Activity in assay [1] is listed as 3.53%; in assay [11], 12.29%; in assay [2], 0.658%; in [13], 1.81%; in assay [14], 60.1%; in [15], 13.21%. Moreover, the Activity in [16] is recorded as 23.65%; in [17] it was 4.93%. The “fold change (FC)” value came to 10.47 in [4]; 1.18 in assay [5]; 1.51 in [6]; 1.28 in [7]; 0.69 in [8]; 1.84 in assay [9]. The “fold change (FC)” value is on record as 0.31 in assay [10], 1.19 in [18] and 0.42 in [19]. The result in the assay with CL1-5 [12] was Active. For the same compound, in [3], the viability at 0.1 µM was determined as 90.9%. Besides, the IC50 in assay [20] was 0.0706 µg/mL and 114 nM.

Source of the values: ChEMBL document CHEMBL4673328, “Three bufadienolides induce cell death in the human lung cancer cell line CL1-5 mainly through autophagy” (Bioorg Med Chem Lett, 2021).
